Results as given in US20060069132A1, “Azolecarboxamide herbicides” (priority 2004, published 2006).

Columns and labels:
[1] = test system: morningglory; assay: Test C pre-/postemergence herbicide test; format: in vivo, Ipomoea coccinea; design: key to Plant response rating, Morningglory: 0 = no effect, 100 = complete control; conditions: for Morningglory plant response rating: 500 g ai/ha
Summary of the method: (§1)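 Emerged plants at the 1- to 4-leaf stage (2–18 cm), or freshly planted seeds, received test chemicals in a non-phytotoxic solvent mixture with surfactant. Response was visually scored against controls after 12 to 14 days in the greenhouse, on a 0 (no effect) to 100 (complete control) scale.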

[2] = test system: large crabgrass; assay: Test A pre-/postemergence herbicide test; format: in vivo, Digitaria sanguinalis
Summary of the method: (§2)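 Both application timings were run together: directed soil spray over freshly planted seeds in sandy loam, and runoff spray onto 2–10 cm seedlings. Evaluation after ~10 days in greenhouse used a 0–100 visual scale versus untreated controls.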

[3] = test system: barnyardgrass; assay: Test A pre-/postemergence herbicide test; format: in vivo, Echinochloa crus-galli
Summary of the method: as §2

[4] = test system: johnsongrass; assay: Test C pre-/postemergence herbicide test; format: in vivo, Sorghum halepense; conditions: for Johnsongrass plant response rating: 500 g ai/ha
Summary of the method: as §1

[5] = test system: barnyardgrass; assay: Test C flooded paddy test; format: in vivo, Echinochloa crus-galli
Summary of the method: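 After a postemergence application at 1 to 4 leaves (plants 2–18 cm high), or at 2 leaves for barnyardgrass in flooded paddy, plants stayed in the greenhouse for 12 to 14 days. Damage was then judged visually relative to control plants, with 100 indicating complete control.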

[6] = test system: Surinam grass; assay: Test C pre-/postemergence herbicide test; format: in vivo, Urochloa decumbens; conditions: for Surinam Grass plant response rating: 500 g ai/ha
Summary of the method: as §1

[7] = test system: giant foxtail; assay: Test A pre-/postemergence herbicide test; format: in vivo, Setaria faberi
Summary of the method: as §2

[8] = test system: woolly cupgrass; assay: Test C pre-/postemergence herbicide test; format: in vivo, Eriochloa villosa; conditions: for Cupgrass, Woolly plant response rating: 500 g ai/ha
Summary of the method: as §1

[9] = test system: redroot pigweed; assay: Test A pre-/postemergence herbicide test; format: in vivo, Amaranthus retroflexus
Summary of the method: as §2

[10] = test system: bermudagrass; assay: Test C pre-/postemergence herbicide test; format: in vivo, Cynodon dactylon; conditions: for Bermudagrass plant response rating: Preemergence, 500 g ai/ha
Summary of the method: as §1

[11] = 125 g ai/ha, scale 0 (no effect) to 100 (complete control), visual, 12 to 14 days, preemergence
[12] = Postemergence, 250 g ai/ha, scale 0 to 100, 0 no effect, 100 complete control
[13] = Preemergence, scale 0 to 100, 0 no effect, 100 complete control
[14] = postemergence, 125 g ai/ha, scale 0 to 100
[15] = postemergence, 62 g ai/ha, scale 0 to 100
[16] = Postemergence, 500 g ai/ha, 0 to 100 scale, 0 no effect, 100 complete control
[17] = Postemergence, 2000 g ai/ha, 0 to 100 scale, 0 no effect, 100 complete control
[18] = Preemergence, 500 g ai/ha, visual rating, 0 to 100 scale (0 no effect, 100 complete control)
[19] = Preemergence, 2000 g ai/ha, visual rating, 0 to 100 scale (0 no effect, 100 complete control)
[20] = 62 g ai/ha, scale 0 to 100 (0 no effect, 100 complete control)
[21] = 125 g ai/ha, scale of 0 to 100, 0 is no effect, 100 is complete control
[22] = 250 g ai/ha, scale 0 to 100 (0 no effect, 100 complete control), visual, 12 to 14 days, preemergence
[23] = preemergence, 500 g ai/ha, visual injury, 0 to 100 scale (0 no effect, 100 complete control)
[24] = scale 0 to 100, 0 no effect, 100 complete control

CCNC(=O)c1cccc(NC(=O)c2cc(C(C)(C)C)nn2CC)n1 [Compound 144]
Plant response rating (0 = no effect, 100 = complete control), Morningglory ([1]; 62 g ai/ha, preemergence): 0 | Plant response rating, Morningglory [1, 11]: 30 | Morningglory plant response rating ([1]; Postemergence, scale 0 to 100): 80 | Plant response rating, Morningglory [1, 12]: 20 | Morningglory plant response rating [1, 13]: 90 | Plant response rating, Morningglory [1, 14]: 0 | Plant response rating, Morningglory [1, 15]: 0 | Crabgrass, Large plant response rating [2, 16]: 55 | Plant response rating, Crabgrass, Large [2, 17]: 90 | Crabgrass, Large plant response rating [2, 18]: 90 | Crabgrass, Large plant response rating [2, 19]: 90 | Barnyardgrass plant response rating [3, 16]: 85 | Plant response rating, Barnyardgrass [3, 17]: 100 | Barnyardgrass plant response rating [3, 18]: 100 | Barnyardgrass plant response rating [3, 19]: 100 | Plant response rating (0 = no effect, 100 = complete control), Johnsongrass ([4]; 62 g ai/ha, preemergence): 0 | Plant response rating, Johnsongrass [4, 11]: 0 | Plant response rating, Johnsongrass [4, 12]: 10 | Johnsongrass plant response rating [4, 13]: 90 | Plant response rating, Johnsongrass [4, 14]: 0 | Plant response rating, Johnsongrass [4, 15]: 0 | Barnyardgrass plant response rating [5, 20]: 20 | Barnyardgrass plant response rating [5, 21]: 20 | Barnyardgrass plant response rating ([5]; 250 g ai/ha, scale of 0 to 100, 0 is no effect, 100 is complete control): 50 | Plant response rating, Barnyardgrass ([5]; 500 g ai/ha, visual rating after 12 to 14 days, scale 0 to 100 (0 no effect, 100 complete control)): 60 | Plant response rating (0 = no effect, 100 = complete control), Surinam Grass ([6]; 62 g ai/ha, preemergence): 20 | Plant response rating, Surinam Grass [6, 11]: 40 | Surinam Grass plant response rating ([6]; Postemergence, scale 0 to 100): 40 | Plant response rating, Surinam Grass [6, 12]: 40 | Surinam Grass plant response rating [6, 13]: 70 | Plant response rating, Surinam Grass [6, 14]: 0 | Plant response rating, Surinam Grass [6, 15]: 0 | Foxtail, Giant plant response rating [7, 16]: 80 | Plant response rating, Foxtail, Giant [7, 17]: 100 | Foxtail, Giant plant response rating [7, 18]: 90 | Foxtail, Giant plant response rating [7, 19]: 100 | Plant response rating (0 = no effect, 100 = complete control), Cupgrass, Woolly ([8]; 62 g ai/ha, preemergence): 0 | Plant response rating, Cupgrass, Woolly [8, 11]: 5 | Plant response rating, Cupgrass, Woolly [8, 22]: 5 | Cupgrass, Woolly plant response rating ([8]; Postemergence, scale 0 to 100): 50 | Plant response rating, Cupgrass, Woolly [8, 12]: 50 | Cupgrass, Woolly plant response rating [8, 13]: 70 | Plant response rating, Cupgrass, Woolly [8, 14]: 30 | Plant response rating, Cupgrass, Woolly [8, 15]: 0 | Pigweed plant response rating [9, 16]: 100 | Plant response rating, Pigweed [9, 17]: 100 | Pigweed plant response rating [9, 19]: 100 | Pigweed plant response rating [9, 23]: 100 | Plant response rating (0 = no effect, 100 = complete control), Bermudagrass ([10]; 62 g ai/ha, preemergence): 70 | Plant response rating, Bermudagrass [10, 11]: 80 | Plant response rating, Bermudagrass [10, 22]: 80 | Bermudagrass plant response rating [10, 24]: 90 | Plant response rating, Bermudagrass [10, 14]: 0 | Plant response rating, Bermudagrass [10, 15]: 0

C#CCNC(=O)c1cccc(NC(=O)c2cc(C(C)(C)C)nn2CC)n1 [Compound 147]
Plant response rating (0 = no effect, 100 = complete control), Morningglory ([1]; 62 g ai/ha, preemergence): 0 | Plant response rating, Morningglory [1, 11]: 0 | Morningglory plant response rating ([1]; Postemergence, scale 0 to 100): 0 | Plant response rating, Morningglory [1, 12]: 0 | Morningglory plant response rating [1, 13]: 0 | Plant response rating, Morningglory [1, 14]: 0 | Plant response rating, Morningglory [1, 15]: 0 | Crabgrass, Large plant response rating [2, 16]: 40 | Plant response rating, Crabgrass, Large [2, 17]: 90 | Crabgrass, Large plant response rating [2, 18]: 85 | Crabgrass, Large plant response rating [2, 19]: 90 | Barnyardgrass plant response rating [3, 16]: 55 | Plant response rating, Barnyardgrass [3, 17]: 95 | Barnyardgrass plant response rating [3, 18]: 40 | Barnyardgrass plant response rating [3, 19]: 95 | Plant response rating (0 = no effect, 100 = complete control), Johnsongrass ([4]; 62 g ai/ha, preemergence): 0 | Plant response rating, Johnsongrass [4, 11]: 40 | Johnsongrass plant response rating ([4]; Postemergence, scale 0 to 100): 10 | Plant response rating, Johnsongrass [4, 12]: 10 | Johnsongrass plant response rating [4, 13]: 80 | Plant response rating, Johnsongrass [4, 15]: 0 | Barnyardgrass plant response rating ([5]; 16 g ai/ha, scale 0 to 100): 0 | Barnyardgrass plant response rating ([5]; 31 g ai/ha, scale 0 to 100): 0 | Barnyardgrass plant response rating [5, 20]: 0 | Barnyardgrass plant response rating [5, 21]: 0 | Plant response rating (0 = no effect, 100 = complete control), Surinam Grass ([6]; 62 g ai/ha, preemergence): 0 | Plant response rating, Surinam Grass [6, 11]: 10 | Surinam Grass plant response rating ([6]; Postemergence, scale 0 to 100): 60 | Plant response rating, Surinam Grass [6, 12]: 30 | Surinam Grass plant response rating [6, 13]: 60 | Plant response rating, Surinam Grass [6, 14]: 0 | Plant response rating, Surinam Grass [6, 15]: 0 | Foxtail, Giant plant response rating [7, 16]: 45 | Plant response rating, Foxtail, Giant [7, 17]: 90 | Foxtail, Giant plant response rating [7, 18]: 60 | Foxtail, Giant plant response rating [7, 19]: 95 | Plant response rating (0 = no effect, 100 = complete control), Cupgrass, Woolly ([8]; 62 g ai/ha, preemergence): 0 | Plant response rating, Cupgrass, Woolly [8, 11]: 10 | Plant response rating, Cupgrass, Woolly [8, 22]: 10 | Cupgrass, Woolly plant response rating ([8]; Postemergence, scale 0 to 100): 30 | Plant response rating, Cupgrass, Woolly [8, 12]: 10 | Cupgrass, Woolly plant response rating [8, 13]: 60 | Plant response rating, Cupgrass, Woolly [8, 14]: 0 | Plant response rating, Cupgrass, Woolly [8, 15]: 0 | Pigweed plant response rating [9, 16]: 90 | Plant response rating, Pigweed [9, 17]: 100 | Pigweed plant response rating [9, 19]: 100 | Pigweed plant response rating [9, 23]: 85 | Plant response rating (0 = no effect, 100 = complete control), Bermudagrass ([10]; 62 g ai/ha, preemergence): 40 | Plant response rating, Bermudagrass [10, 11]: 70 | Plant response rating, Bermudagrass [10, 22]: 90 | Plant response rating, Bermudagrass [10, 12]: 70 | Bermudagrass plant response rating [10, 24]: 95
